Source: patent US4426453A, “Derivatives of iodothyronine compounds and their use in an assay for the free iodothyronine compounds” (Amersham International Limited, priority 1980, dated 1984)
“Also recorded” adds a separate entry of the source.

Experiments:
[1] = Stability in water / assay buffer; assay type: physicochemical; conditions: qualitative
TBG [2] = target: T1, TBG (Homo sapiens, UniProt P05543); test: T4.EDTA binding strength to TBG relative to T4 (displacement of 125I-T4 tracer from TBG:anti-TBG binding reagent); set-up: 1 ml of resin stripped human serum; from tissue; host or cells: human serum (resin stripped); conditions: for binding to TBG (in words): qualitative
T1 sequence (P05543 21-415): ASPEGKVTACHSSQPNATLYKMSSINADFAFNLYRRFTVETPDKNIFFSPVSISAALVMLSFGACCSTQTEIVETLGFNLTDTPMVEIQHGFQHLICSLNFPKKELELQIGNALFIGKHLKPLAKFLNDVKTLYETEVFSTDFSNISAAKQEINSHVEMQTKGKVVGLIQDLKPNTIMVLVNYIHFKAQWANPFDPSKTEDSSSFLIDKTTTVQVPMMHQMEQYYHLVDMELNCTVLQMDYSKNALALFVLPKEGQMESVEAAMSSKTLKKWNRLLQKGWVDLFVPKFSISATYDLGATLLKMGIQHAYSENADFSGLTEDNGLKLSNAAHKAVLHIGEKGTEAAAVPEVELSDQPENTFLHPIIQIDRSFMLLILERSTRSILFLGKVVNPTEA
Protocol: (§1) Pre-precipitated antiserum (binding reagent) to either TBG or prealbumin is incubated with a serum source of TBG or prealbumin, so that the T4 binding protein is isolated on the binding reagent. Tracer ^125 I-T4 is added to the resulting complex and is thus purified. The displacement of the tracer ^125 I-T4, by varying concentrations of T4 and T4.EDTA, from the TBG or prealbumin, can then be studied. The results can be used to estimate the differences in binding affinity between T4 and T4.EDTA for the two T4 binding proteins.
15% Donkey anti-sheep in phosphate
2% TBG Antiserum buffer + 0.05% BSA
Equal quantities of the above solutions are mixed and rotated overnight at 4° so that the final concentrations in the binding reagent are 7.5% donkey anti-sheep, and 1% TBG antiserum. Centrifugation at 900 rpm, decantation and resuspension in fresh buffer are carried out twice to wash the reagent.
1 ml of resin stripped human serum and 20 ml of the above binding reagents are mixed for 1 hour at room temperature. Centrifugation, decantation and resuspension in fresh buffer (phosphate+0.05% BSA) are carried out twice.
Typically 10 ml of TBG:anti-TBG binding reagents, 28 ml of phosphate buffer+0.05% BSA, and 2 ml of ^125 I-T4 tracer solution (0.1 μCi high specific activity T4 per ml in phosphate buffer+0.05% BSA) are mixed for 1 hour at room temperature. Centrifugation, decantation and resuspension in fresh buffer (phosphate+0.05% BSA) are carried out twice. Once prepared the tracer T4:TBG:anti-TBG binding reagent is used immediately.
The stock solutions are diluted in phosphate buffer+0.005% BSA. […]
(§2) Thus the percentage bound of the tracer at different T4 and T4.EDTA concentrations, can be determined in the two systems.
(§3) Tracer percentage bound is plotted against T4 and T4.EDTA concentrations, and from these curves an estimate of the non-specific binding can be made. The data can then be re-calculated, using this blank correction, plotted, and the T4 and T4.EDTA concentrations corresponding to a range of tracer percentage bound values can be read off the curve. […]

[3] = test system: solid phase T4 antibody (T4-specific antiserum on latex particles); test: Free-T4 assay using T4.EDTA tracer: standard curve; assay type: binding; conditions: 37° C., one hour
Description: T4.EDTA was labelled with ^125 I by an exchange reaction using sodium iodide-^125 I and chloramine-T. The specific activity obtained was typically 500 millicuries per milligram, and was used as a working concentration of 0.13 microcuries per […] in a 60 millimolar phosphate buffer, pH 7.4, containing 0.9% sodium chloride, 0.9% bovine serum albumin and 0.1% sodium azide.
A solid phase antibody was used consisting of T4-specific antiserum bound on to micron sized latex particles such that the suspension contained 0.66 milligram of latex particles per milliliter and antibodies from 0.5 microliters of T4-specific antiserum per milligram of latex. The buffer was 10 millimolar phosphate, pH 7.4 containing 0.1% sodium azide.
A set of 6 human serum pools were prepared by standard techniques to contain free-T4 concentrations ranging from zero to approximately 10 nanograms per deciliter. These standards were calibrated with reference to an equilibrium dialysis free T4 assay.
The free T4 assay was set up in polystyrene assay tubes following this protocol:
100 μl serum standard or unknown serum sample
500 μl ^125 I-T4.EDTA tracer solution.
500 μl solid phase T4 antibody suspension.
The assay tubes were vortex mixed, and incubated at 37° C. in a water bath for one hour. The tubes were centrifuged at 1500 g for 20 minutes and the supernatant liquid decanted. The readioactivity of the precipitate was measured.

[4] = test system: Antisera (having low T4 cross reactivity); test: Binding to antisera having low T4 cross reactivity; conditions: antisera with low T4 cross reactivity; compared with T3
TBPA (prealbumin) = target: T2, TBPA (prealbumin) (Homo sapiens, UniProt P02766); test: T4.EDTA binding strength to prealbumin (TBPA) relative to T4 (displacement of 125I-T4 tracer from TBPA:anti-TBPA binding reagent)
T2 construct: from tissue; host or cells: normal serum
Protocol: as §1
This is prepared as for the anti-TBG binding reagent except that equal volumes of 30% donkey anti-rabbit second antibody and 4% TBPA antiserum solutions were mixed to give final concentrations of 15% donkey anti-rabbit, and 2% anti-TBPA.
600 μl normal serum and 20 ml anti-TBPA binding reagent are mixed for 1 hour at room temperature. […]
as §2, §3

T4 antiserum = test: Affinity with respect to T4 antiserum; assay type: binding
TBG [5] = target: T1, TBG; conditions: blood stream of human beings; cited from earlier work
TBPA = conditions: blood stream of human beings; cited from earlier work
Albumin = conditions: blood stream of human beings; cited from earlier work
[6] = % of the affinity constant of T4, 37° C.

With `COC(=O)[C@H](Cc1cc(I)c(Oc2cc(I)c(O)c(I)c2)c(I)c1)NC(C)=O` [N-Acetyl-thyroxine-methyl ester, N-acetyl-thyroxine-methyl ester, reference compound] the “stability in water / usable time after dilution into the assay buffer” value [1] was “only gives useful assay results within hours of dilution into the assay buffer” and the “binding to TBG (in words)” value (TBG [2]) was “binds appreciably to TBG”.

In the case of `O=C(O)CN(CCN(CC(=O)O)CC(=O)NC(Cc1cc(I)c(Oc2cc(I)c(O)c(I)c2)c(I)c1)C(=O)O)CC(=O)O` (stereo not shown) [^125 I-T4.EDTA], the “% radioactivity in solid phase” value ([3]; free T4 0 ng/dl) is reported as 61.8%, the “% radioactivity in solid phase” value ([3]; free T4 0.45 ng/dl) is reported as 41.2% and the “% radioactivity in solid phase” value ([3]; free T4 0.95 ng/dl) is reported as 30.8%. For the same molecule, the “% radioactivity in solid phase” value ([3]; free T4 1.9 ng/dl) was 21.1%, the “% radioactivity in solid phase” value ([3]; free T4 4.9 ng/dl) was 12.4% and the “% radioactivity in solid phase” value ([3]; free T4 9.0 ng/dl) was 9.3%.

In the case of `O=C(O)CN(CCN(CC(=O)O)CC(=O)NC(Cc1cc(I)c(Oc2ccc(O)c(I)c2)c(I)c1)C(=O)O)CC(=O)O` (stereo not shown) [T3.EDTA, 2-carboxy-6,9-dicarboxymethyl-1 3',5'di-iodo-4'(3"-iodo-4"-hydroxy)phenoxy phenyl 4-oxo-3,6,9-triazaundecan-11-oic acid], the “binding to antisera relative to T3” value [4] is reported as “equal, or better, binding than T3 itself”.

For `O=C(O)CN(CCN(CC(=O)O)CC(=O)NC(Cc1cc(I)c(Oc2cc(I)c(O)c(I)c2)c(I)c1)C(=O)O)CC(=O)O` (stereo not shown) [T4.EDTA, 1-{3',5'-di-iodo-4'(3",5"-di-iodo-4"-Hydroxyphenoxy)phenyl}2-carboxy-6,9-dicarboxymethyl-4-oxo-3,6,9-triazaundecan-11-oic acid], the “affinity constant for TBPA relative to that of T4” value (TBPA (prealbumin); [6]) was 2.7%, the “binding to TBPA (in words)” value (TBPA (prealbumin); qualitative) was “binds only very weakly to TBG and TBPA” and the “affinity constant with respect to T4 antiserum relative to that of T4” value (T4 antiserum; % of that of T4) was 90.4%. The “binding to T4 antiserum (in words)” value (T4 antiserum; relative to T4) was “binds almost as strongly to T4 antiserum as does T4 itself”, the “stability in water / usable time after dilution into the assay buffer” value [1] was “stable in water” and the “affinity constant for TBG relative to that of T4” value (TBG [2]; [6]) was 3.5%. The “binding to TBG (in words)” value (TBG [2]) was “binds only very weakly to TBG; also recorded: shows no significant tendency to bind to TBG”.

For `N[C@@H](Cc1cc(I)c(Oc2cc(I)c(O)c(I)c2)c(I)c1)C(=O)O` [T4, Thyroxine], the “percentage of T4 bound to TBG” value (TBG [5]) is given as “approximately 70%”, the “percentage of T4 bound to TBPA” value (TBPA) is given as 20-25% and the “percentage of T4 bound to Albumin” value (Albumin) is given as 5-10%.
